The record followed here is ChEMBL document CHEMBL1136693, “Aryl tetrahydropyridine inhibitors of farnesyltransferase: glycine, phenylalanine and histidine derivatives” (Bioorg Med Chem Lett, 2003).

Assay [1] addresses Protein farnesyltransferase (Homo sapiens, UniProt P49354+P49356). The experiment in a line: In vitro inhibitory activity against farnesyl transferase. The assay is classed as protein-complex assay.
Assay [2] addresses Protein farnesyltransferase (Mus musculus, UniProt Q61239+Q8K2I1). The experiment in a line: Inhibition of Ras farnesylation in Human Ha-Ras-transformed BALB/c 3T3 cells. In kind it is functional, cell-based.
Assay [3] deals with Protein farnesyl/geranylgeranyl transferase (Homo sapiens) (UniProt P49354+P49356+P53609). Nature of the assay: Selectivity for farnesyl over geranylgeranyl transferase. The assay is classed as protein-complex assay.
In assay [4] the target is Geranylgeranyl transferase type I (Homo sapiens, UniProt P49354+P53609). Nature of the assay: In vitro inhibitory activity against geranylgeranyltransferase-1 (type I). The assay is classed as protein-complex assay.

`Cn1cncc1C[C@H](NCc1ccc(C#N)cc1)C(=O)N1CCC(C#N)=C(c2cccc3ccccc23)C1` gave a concentration for half-maximal inhibition (IC50) in assay [1] of 130 nM.

Consider `Cn1cncc1CN(CC(=O)N1CCC(C#N)=C(c2cccc3ccccc23)C1)Cc1ccccc1`, for which half-maximal inhibition in assay [1] (IC50) was put at 280 nM.

In assay [1], `Cn1cncc1CN(CC(=O)N1CCC(C#N)=C(c2cccc3ccccc23)C1)Cc1ccc(C#N)cc1` returned a concentration for half-maximal inhibition (IC50) of 560 nM.

As to `Cn1cncc1CN[C@@H](Cc1ccc(C#N)cc1)C(=O)N1CCC(C#N)=C(c2cccc3ccccc23)C1`, the half-inhibitory concentration (IC50) in assay [1] worked out at 310 nM.

On to `CN(Cc1ccc(C#N)cc1)[C@H](Cc1cncn1C)C(=O)N1CCC(C#N)=C(c2cccc3ccccc23)C1`, for which the EC50 in assay [2] is above 100 nM.

In turn, `CCCCN(CCC1CCCCC1)Cc1ccc(C(=O)N[C@@H](CCSC)C(=O)O)c(-c2ccccc2C)c1` gave an EC50 in assay [2] of 16 nM. Also, in assay [3], the Selectivity stood at 75000.

In turn, `CSCC[C@H](NC(=O)C1=C(c2ccccc2C)CN(C(=O)N(Cc2ccccc2)Cc2cncs2)CC1)C(=O)O` showed an IC50 in assay [1] of 0.56 nM.

In assay [4], `Cn1cncc1C[C@@H](NCc1ccc(C#N)cc1)C(=O)N1CCC(C#N)=C(c2cccc3ccccc23)C1` gave a 50% inhibitory concentration (IC50) of 3.5 µM. In addition, in assay [2], the 50% effective concentration (EC50) was determined as 190 nM.

Take `CSCC[C@H](NC(=O)C1=C(c2ccccc2C)CN(C(=O)OC(CCC2CCCCC2)c2cncs2)CC1)C(=O)O` (some centres not stated): in assay [1], it took 0.71 nM to reach half-maximal inhibition (IC50).

For the compound `Cn1cncc1CN[C@H](Cc1ccc(C#N)cc1)C(=O)N1CCC(C#N)=C(c2cccc3ccccc23)C1`, the half-inhibitory concentration (IC50) in assay [1] is 240 nM.

The term IC50 denotes the concentration at which inhibition is half-maximal. Low readings indicate greater potency in that assay, high ones weaker potency in that assay. A word on the EC50: it is the concentration that produces a half-maximal response. High values mean weaker potency, low ones greater potency.
